The source of these data is ChEMBL document CHEMBL5230129, “Antibacterial activities with the structure-activity relationship of coumarin derivatives” (2020).

Values after ≈ are worked out from the molar mass of the structure shown.

What all share (format): functional
The test system of one experiment is Klebsiella pneumoniae. Briefly: Antibacterial activity against Klebsiella pneumoniae assessed as zone of inhibition incubated for 24 hrs by disk diffusion assay. (In general: In agar diffusion tests the substance spreads into inoculated agar from a disc or well.)
The subject of experiment [1] is Bacillus subtilis. Put plainly: Antibacterial activity against Bacillus subtilis assessed as inhibition of bacterial growth relative to control.
Experiment [2] concerns Escherichia coli. Briefly: Antibacterial activity against Escherichia coli assessed as inhibition of bacterial growth relative to control.
Experiment [3] relates to Staphylococcus aureus. Briefly: Antibacterial activity against Staphylococcus aureus MTCC 3160 assessed as inhibition of bacterial growth by broth micro dilution assay.
The test system of experiment [4] is Pseudomonas aeruginosa. Put plainly: Antibacterial activity against Pseudomonas aeruginosa MTCC 1034 assessed as inhibition of bacterial growth by broth micro dilution assay.
Experiment [5] relates to Staphylococcus aureus. Briefly: Antibacterial activity against Staphylococcus aureus NCTC-7447 assessed as zone of inhibition incubated for 24 hrs by paper disk diffusion assay.
The next experiment deals with Bacillus cereus. Put plainly: Antibacterial activity against Bacillus cereus ATCC-14579 assessed as zone of inhibition incubated for 24 hrs by paper disk diffusion assay.
In experiment [6] the test system is Escherichia coli. Briefly: Antibacterial activity against Escherichia coli MTCC 739 assessed as inhibition of bacterial growth incubated for 24 hrs by spectrophotometric assay.
Experiment [7] relates to Escherichia coli. Put plainly: Antibacterial activity against Escherichia coli MTCC 1586 assessed as zone of inhibition incubated overnight by Kirby-Bauer disc diffusion method.
In experiment [8] the test system is Staphylococcus aureus. Put plainly: Antibacterial activity against Staphylococcus aureus MTCC 740 assessed as zone of inhibition incubated overnight by Kirby-Bauer disc diffusion method.
The subject of experiment [9] is Escherichia coli. Briefly: Antibacterial activity against Escherichia coli MTCC 40 assessed as zone of inhibition incubated for 24 hrs by well-plate method.
The next experiment concerns Helicobacter pylori. Briefly: Antibacterial activity against Helicobacter pylori ATCC43504 assessed as inhibition of bacterial growth incubated for 72 hrs by micro-dilution broth assay. (In broth dilution the organism is exposed to a series of concentrations in liquid medium.)
Experiment [10] relates to Pseudomonas aeruginosa. Put plainly: Antibacterial activity against Pseudomonas aeruginosa assessed as inhibition of bacterial growth incubated for 24 hrs by broth microdilution assay.
Experiment [11] concerns Escherichia coli. Briefly: Antibacterial activity against Escherichia coli MTCC 443 assessed as inhibition of bacterial growth incubated for 18 to 20 hrs by broth microdilution assay. As to conditions: time 18-20 hrs.
Experiment [12] relates to Staphylococcus aureus. Put plainly: Antibacterial activity against Staphylococcus aureus MTCC 96 assessed as inhibition of bacterial growth incubated for 18 to 20 hrs by broth microdilution assay. The following applies: time 18-20 hrs.
Experiment [13] relates to Staphylococcus aureus. Briefly: Antibacterial activity against Staphylococcus aureus assessed as inhibition of bacterial growth by broth dilution assay.
The subject of experiment [14] is Bacillus subtilis. Put plainly: Antibacterial activity against Bacillus subtilis assessed as inhibition of bacterial growth by broth dilution assay.
In a further experiment the test system is Pseudomonas. Briefly: Antibacterial activity against Pseudomonas assessed as zone of inhibition.
The subject of experiment [15] is Staphylococcus aureus. Put plainly: Antibacterial activity against Staphylococcus aureus assessed as inhibition of bacterial growth by broth micro dilution assay.
The next experiment relates to Bacillus. Put plainly: Antibacterial activity against Bacillus assessed as inhibition of bacterial growth by broth micro dilution assay.
In experiment [16] the test system is Staphylococcus aureus. Briefly: Antibacterial activity against Staphylococcus aureus ATCC-29213 assessed as inhibition of bacterial growth incubated for 16 hrs by agar-well diffusion assay.
Experiment [17] has as its system Escherichia coli. Briefly: Antibacterial activity against Escherichia coli MTCC 40 assessed as inhibition of bacterial growth incubated for 24 hrs by well-plate method.
The subject of experiment [18] is Staphylococcus aureus. Briefly: Antibacterial activity against Staphylococcus aureus MTCC 121 assessed as inhibition of bacterial growth incubated for 24 hrs by well-plate method.
Experiment [19] has as its system Staphylococcus aureus. Briefly: Antibacterial activity against Staphylococcus aureus MTCC 121 assessed as zone of inhibition incubated for 24 hrs by well-plate method.
Experiment [20] relates to Escherichia coli. Put plainly: Antibacterial activity against Escherichia coli NCIM 2256 assessed as inhibition of bacterial growth incubated for 24 hrs by serial twofold dilution assay.
The subject of another experiment is Pseudomonas fluorescens. Put plainly: Antibacterial activity against Pseudomonas fluorescens NCIM 2173 assessed as inhibition of bacterial growth incubated for 24 hrs by serial twofold dilution assay.
Experiment [21] has as its system Sphingomonas paucimobilis. Put plainly: Antibacterial activity against Flavobacterium devorans ATCC 10829 assessed as inhibition of bacterial growth incubated for 24 hrs by serial twofold dilution assay.
Experiment [22] concerns Escherichia coli. Put plainly: Antibacterial activity against Escherichia coli assessed as zone of inhibition incubated for 24 hrs by well-diffusion method.
The test system of experiment [23] is Pseudomonas aeruginosa. Put plainly: Antibacterial activity against Pseudomonas aeruginosa assessed as zone of inhibition incubated for 24 hrs by well-diffusion method.
Experiment [24] relates to Staphylococcus aureus. Briefly: Antibacterial activity against Staphylococcus aureus assessed as zone of inhibition incubated for 24 hrs by well-diffusion method.
A further experiment relates to Micrococcus luteus. Put plainly: Antibacterial activity against Micrococcus luteus assessed as zone of inhibition incubated for 24 hrs by well-diffusion method.

As for `COc1ccc(Nc2nnc(COc3ccc4c(C)cc(=O)oc4c3)s2)cc1`, in the experiment on Klebsiella pneumoniae, the “inhibition zone (IZ)” value worked out at 15 mm.
Regarding `COC(=O)c1nnn(CC(=O)c2cc3c(ccc4ccccc43)oc2=O)c1C(=O)OC`, the “inhibition (INH)” value in the experiment on Bacillus subtilis [1] and with Escherichia coli [2] was 83.3% each time.
As a reminder, the MIC is the smallest concentration in the dilution series that meets the test's criterion for growth inhibition. In the case of `Cc1cc(=O)oc2c1=CCC(O)C=2C1C(C#N)=C(N)Oc2c1c(=O)oc1ccccc21` (configuration not stated), the MIC in the experiment with Staphylococcus aureus [3] was determined as 0.4 µg/mL (≈ 0.961 µM); in the experiment with Pseudomonas aeruginosa [4], 1.6 µg/mL (≈ 3.84 µM).
On to `O=c1oc2ccccc2c(O)c1-c1ccn(-c2ccccc2)n1`, for which the “inhibition zone (IZ)” value worked out at 20 mm in the experiment with Staphylococcus aureus [5] and 16 mm with Bacillus cereus.
Take `O=c1cc(OCc2cn(CN3CCN(c4ccccc4F)CC3)c(=S)s2)c2ccccc2o1`: the MIC in the experiment on Escherichia coli [6] was found to be 12.5 µg/mL (≈ 25.8 µM).
Regarding `CC[N+](CC)(CC)CCCCCCCCNCc1cn(Cc2cc(=O)oc3c(OC)c4c(cc23)CCC(C)(C)O4)nn1.[Br-]`, the “inhibition zone (IZ)” value is 2 mm with Escherichia coli [7] and 0 mm with Staphylococcus aureus [8].
In the case of `Cc1cc(=O)oc2cc(OCc3nnc(Nc4ccc(Cl)cc4)s3)ccc12`, in the experiment on Klebsiella pneumoniae, the “inhibition zone (IZ)” value came out at 15 mm.
With `O=c1oc2ccc3ccccc3c2cc1-c1csc(N/N=C/c2cn(-c3ccccc3)nc2-c2cc3ccccc3oc2=O)n1`, in the experiment on Escherichia coli [9], the “inhibition zone (IZ)” value was determined as 21 mm.
Regarding `COc1ccc2c(CC(=O)O)cc(=O)oc2c1`, in the experiment with Helicobacter pylori, the MIC worked out at 49 µg/mL (≈ 209 µM).
In the case of `O=C(O)c1cn(C2CC2)c2cc(N3CCNCC3)c(F)cc2c1=O` [CIPROFLOXACIN], the MIC was found to be 49 µg/mL (≈ 148 µM) with Pseudomonas aeruginosa [10]; 25 µg/mL (≈ 75.4 µM) in the experiment with Escherichia coli [11]; 50 µg/mL (≈ 151 µM) in the experiment with Staphylococcus aureus [12]; 2 µg/mL (≈ 6.04 µM) with Staphylococcus aureus [13]; 2 µg/mL (≈ 6.04 µM) with Bacillus subtilis [14]; 1.6 µg/mL (≈ 4.83 µM) in the experiment on Staphylococcus aureus [3]. Moreover, the MIC in the experiment with Pseudomonas aeruginosa [4] is 1.6 µg/mL (≈ 4.83 µM); in the experiment on Staphylococcus aureus [15], 2 µg/mL (≈ 6.04 µM); in the experiment with Bacillus, 2 µg/mL (≈ 6.04 µM); in the experiment with Staphylococcus aureus [16], 10 µg/mL (≈ 30.2 µM). In addition, the “inhibition (INH)” value in the experiment with Bacillus subtilis [1] and in the experiment on Escherichia coli [2] was 100% each time. Further, the inhibition zone (IZ) with Pseudomonas came out at 7.5 mm.
Turning to `CC[N+](CC)(CC)CCCCCCCCNCc1cn(Cc2cc(=O)oc3c(O)c4c(cc23)CCC(C)(C)O4)nn1.[Br-]`, the “inhibition zone (IZ)” value with Escherichia coli [7] and in the experiment on Staphylococcus aureus [8] was 2 mm each time.
Regarding `Cc1cc(=O)oc2cc(O)ccc12` [HYMECROMONE], the MIC in the experiment on Helicobacter pylori was 50 µg/mL (≈ 284 µM).
Turning to `O=c1oc2cc(Br)ccc2cc1-c1csc(N/N=C/c2cn(-c3ccccc3)nc2-c2cc3ccccc3oc2=O)n1`, the results for the MIC with Escherichia coli [17] and in the experiment on Staphylococcus aureus [18] were 12.5 µg/mL (≈ 19.6 µM) and 50 µg/mL (≈ 78.6 µM), respectively. In addition, the “inhibition zone (IZ)” value in the experiment with Escherichia coli [9] and in the experiment on Staphylococcus aureus [19] was 22 mm throughout.
`O=c1cc(OCc2cn(CN3CCN(c4ccc(F)cc4)CC3)c(=S)s2)c2ccccc2o1`: the MIC in the experiment on Escherichia coli [6] stood at 12.5 µg/mL (≈ 25.8 µM).
Regarding `CC[N+](CC)(CC)CCCCCCNCc1cn(Cc2cc(=O)oc3cc4c(cc23)CCC(C)(C)O4)nn1.[Br-]`, the “inhibition zone (IZ)” value was found to be 10 mm in the experiment on Escherichia coli [7] and 12 mm in the experiment with Staphylococcus aureus [8].
For `CC1(C)S[C@@H]2[C@H](NC(=O)[C@H](N)c3ccccc3)C(=O)N2[C@H]1C(=O)O` [AMPICILLIN], the MIC in the experiment on Escherichia coli [20] came out at 4 µg/mL (≈ 11.4 µM); in the experiment with Pseudomonas fluorescens, 4 µg/mL (≈ 11.4 µM); in experiment [21], 4 µg/mL (≈ 11.4 µM); in the experiment on Escherichia coli [6] it was 6.25 µg/mL (≈ 17.9 µM).
With `CO/N=C(\C(=O)N[C@@H]1C(=O)N2C(C(=O)O)=C(COC(C)=O)CS[C@H]12)c1csc(N)n1` [CEFOTAXIME], the “inhibition zone (IZ)” value in the experiment with Escherichia coli [22], in the experiment on Pseudomonas aeruginosa [23], with Staphylococcus aureus [24] and in the experiment with Micrococcus luteus was 11 mm throughout.
Consider `Cc1cc(=O)oc2c1=CCC(Cl)C=2C1C(C#N)=C(N)Oc2c1c(=O)oc1ccccc21` (configuration not stated), for which the minimal inhibitory concentration (MIC) with Staphylococcus aureus [3] was determined as 0.8 µg/mL (≈ 1.84 µM).
Take `COC(=O)c1nnn(CC(=O)c2cc3cc(Br)ccc3oc2=O)c1C(=O)OC`: the “inhibition (INH)” value in the experiment with Bacillus subtilis [1] came to 82.2%; with Escherichia coli [2], 88.8%.
